Ki data for 10 compounds are collected here from patent US20260097139A1, “GONADOTROPIN-RELEASING HORMONE RECEPTOR (GnRHR) TARGETED THERAPEUTICS AND USES THEREOF” (Radionetics Oncology, Inc., priority 2022, published 2026).

Bounds are passed on as bounds.

The first assay addresses T1, human GnRH receptor (Homo sapiens, UniProt P30968).
T1 construct: expressed in transfected cells
T1 sequence (P30968 1-328): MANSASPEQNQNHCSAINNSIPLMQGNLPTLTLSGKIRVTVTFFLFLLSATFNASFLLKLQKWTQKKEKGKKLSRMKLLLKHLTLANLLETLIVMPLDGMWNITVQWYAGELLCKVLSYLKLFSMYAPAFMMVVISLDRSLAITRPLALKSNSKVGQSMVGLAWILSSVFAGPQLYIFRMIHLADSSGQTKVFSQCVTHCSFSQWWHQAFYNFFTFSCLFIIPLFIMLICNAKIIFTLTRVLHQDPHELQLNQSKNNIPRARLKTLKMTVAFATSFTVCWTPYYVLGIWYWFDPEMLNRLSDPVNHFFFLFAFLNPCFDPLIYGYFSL
The experiment in a line: IP-One functional assay for GnRHR (reported as hGnRHR Binding Ki). It counts as cell-based. The settings on record: incubation time 60 min; FlpIn T-Rex 293 cells expressing human GnRH receptor; read-out: hGnRHR Binding Ki 60 min. An excerpt:
General overview: GnRHR is a Gq/11-coupled receptor that mediates the action of the GnRH hormone by activating the phosphatidylinositol-calcium second messenger system. Activation of the GnRHR induces the accumulation of inositol monophosphate, a stable metabolite of IP-3, that can be characterized as a measure of agonistic activity (increase in IP-One) or antagonistic activity (blockade of IP-One accumulation) by compounds of the invention. One example of an intracellular IP-One assay used to characterize GnRHR antagonists is described below.
24 hours prior to the assay, 30,000 FlpIn T-Rex 293 Cells (ThermoFisher #R78007) stably expressing the functional human GnRH receptor upon induction with tetracycline were plated in a 96-well tissue culture-treated plate in FlpIn T-Rex 293 Growth Medium [DMEM (Corning #10-013-CM) supplemented with 10% fetal bovine serum (Gemini Bio-Products #900-208), 100 U/mL penicillin; 100 μg/mL streptomycin; 2 mM L-glutamine (Gemini Bio-Products #400-110)] and 50 ng/mL tetracycline hydrocholoride (Sigma, T7660). Cells were cultured at 37° C., 5% CO2 and 95% humidity. On the day of the assay, the growth media was discarded and the cells were treated with 50 μL of a dose response curve of GnRH (Bachem #4033013) in the presence of various concentrations of fixed compound in assay buffer [10 mM HEPES (Biopioneer Cat #C0113) pH 7.4, 1 mM CaCl2) (Fisher Scientific BP510-100), 0.5 mM MgCl2 (Sigma M8266-100G), 4.2 mM KCl (Fisher Scientific P330-500), 146 mM NaCl (Spectrum Chemical #SO155), 5.5 mM Glucose (Sigma G7528), 50 mM LiCl (Fisher Scientific L121-100), 0.1% bovine serum albumin (Fisher Scientific Cat #BP1600)] and incubated for 1 hour at 37° C. (the final concentrations of GnRH ranged from 0-250 nM and the final concentrations of the compound ranged from 0-10,000 nM). 50 μL of lysis buffer (HRTF IP-one kit, Cisbio) was added on top of the treatment to lyse the cells. The lysate was transferred to 384-well plates and IP-one detection and visualization antibodies were added and incubated for 1-24 hours at room temperature. The time-resolved fluorescent signal was read with a Tecan M1000Pro (Tecan) multiplate reader. The intracellular IP-one concentrations were calculated by regression to a standard curve and were plotted vs. the concentration of the GnRH agonists in the presence of various concentrations of antagonist and the Ks of the compounds were calculated using standard curve-fitting methods. All data manipulations were performed using GraphPad Prism v8 (GraphPad, San Diego, CA).
For some analogs, the incubation time was 2 h or 4 h, as noted in Table A.
As a reminder, the Ki is a dissociation constant, usually derived from enzyme kinetics or from competition with a known ligand. With `CN(C(=O)c1ccc(Cl)c(-c2cnc(C(F)(F)F)cc2C#N)c1)c1ccccc1OCCC(=O)NCCOCCOCCOCCOCCOCCOCCOCCOCCNC(=O)CN1CCN(CC(=O)O)CCN(CC(=O)O)CCN(CC(=O)O)CC1` [Compound 2, 2,2′,2″-(10-(33-(2-(4-chloro-3-(4-cyano-6-(trifluoromethyl)pyridin-3-yl)-N-methylbenzamido)phenoxy)-2,31-dioxo-6,9,12,15,18,21,24,27-octaoxa-3,30-diazatritriacontyl)-1,4,7,10-tetraazacyclododecane-1,4,7-triyl)triacetic acid], the Ki was below 0.01 µM.
Regarding `Cc1cccc(OCCC(=O)NCCOCCOCCOCCOCCOCCOCCOCCOCCNC(=O)CN2CCN(CC(=O)O)CCN(CC(=O)O)CCN(CC(=O)O)CC2)c1N(C)C(=O)c1ccc(Cl)c(-c2cnc(C(F)(F)F)cc2C#N)c1` [Compound 8, 2,2′,2″-(10-(33-(2-(4-chloro-3-(4-cyano-6-(trifluoromethyl)pyridin-3-yl)-N-methylbenzamido)-3-methylphenoxy)-2,31-dioxo-6,9,12,15,18,21,24,27-octaoxa-3,30-diazatritriacontyl)-1,4,7,10-tetraazacyclododecane-1,4,7-triyl)triacetic acid], the Ki was below 0.01 µM.
Same read-out and setting: then `COc1ccccc1N(C)C(=O)c1cc(-c2cnc(C(F)(F)F)cc2C#N)c(Cl)cc1OCCCC(=O)NCCOCCOCCOCCOCCOCCOCCOCCOCCNC(=O)CN1CCN(CC(=O)O)CCN(CC(=O)O)CCN(CC(=O)O)CC1` [Compound 6M-In, indium(III) 2,2′,2″-(10-(34-(5-chloro-4-(4-cyano-6-(trifluoromethyl)pyridin-3-yl)-2-((2-methoxyphenyl)(methyl)carbamoyl)phenoxy)-2,31-dioxo-6,9,12,15,18,21,24,27-octaoxa-3,30-diazatetratriacontyl)-1,4,7,10-tetraazacyclododecane-1,4,7-triyl)triacetate], with below 0.01 µM; and `COc1ccccc1N(C)C(=O)c1cc(-c2cnc(C(F)(F)F)cc2C#N)c(Cl)cc1OCCOCCOCCOCCOCCOCCOCCOCCOCCNC(=O)CN1CCN(CC(=O)O)CCN(CC(=O)O)CCN(CC(=O)O)CC1` [Compound 5M-In, indium(III) 2,2′,2″-(10-(29-(5-chloro-4-(4-cyano-6-(trifluoromethyl)pyridin-3-yl)-2-((2-methoxyphenyl) (methyl)carbamoyl)phenoxy)-2-oxo-6,9,12,15,18,21,24,27-octaoxa-3-azanonacosyl)-1,4,7,10-tetraazacyclododecane-1,4,7-triyl)triacetate], with below 0.01 µM; and `CN(C(=O)c1ccc(Cl)c(-c2cnc(C(F)(F)F)cc2C#N)c1)c1ccccc1OCCOCCOCCOCCOCCOCCOCCOCCOCCNC(=O)CN1CCN(CC(=O)O)CCN(CC(=O)O)CCN(CC(=O)O)CC1` [Compound 3M-In, indium(III) 2,2′,2″-(10-(29-(2-(4-chloro-3-(4-cyano-6-(trifluoromethyl)pyridin-3-yl)-N-methylbenzamido)phenoxy)-2-oxo-6,9,12,15,18,21,24,27-octaoxa-3-azanonacosyl)-1,4,7,10-tetraazacyclododecane-1,4,7-triyl)triacetate], with below 0.01 µM.

Still in this assay, the particulars now being: incubation time 2 h; FlpIn T-Rex 293 cells expressing human GnRH receptor; read-out: hGnRHR Binding Ki 2 h.
Regarding `COc1nc(SCCC(=O)NCCC[C@@H](NC(=O)CN2CCN(CC(=O)O)CCN(CC(=O)O)CCN(CC(=O)O)CC2)C(=O)O)nc(OC)c1NC(=O)c1ccc(Oc2cc3c(cc2C)CCC3(C)C)o1` [Compound 16, (R)-2,2′,2″-(10-(2-((1-carboxy-4-(3-((4,6-dimethoxy-5-(5-((3,3,6-trimethyl-2,3-dihydro-1H-inden-5-yl)oxy)furan-2-carboxamido)pyrimidin-2-yl)thio)propanamido)butyl)amino)-2-oxoethyl)-1,4,7,10-tetraazacyclododecane-1,4,7-triyl)triacetic acid], the Ki was below 0.01 µM.
On the same count and under the same terms, then `CC1(C)CCN(S(=O)(=O)c2cc(-c3cnc(C(F)(F)F)cc3C#N)c(Cl)cc2OCCOCCOCCOCCOCCOCCOCCOCCOCCNC(=O)CN2CCN(CC(=O)O)CCN(CC(=O)O)CCN(CC(=O)O)CC2)c2ccccc21` [Compound 7, 2,2′,2″-(10-(29-(5-chloro-4-(4-cyano-6-(trifluoromethyl)pyridin-3-yl)-2-((4,4-dimethyl-3,4-dihydroquinolin-1(2H)-yl)sulfonyl)phenoxy)-2-oxo-6,9,12,15,18,21,24,27-octaoxa-3-azanonacosyl)-1,4,7,10-tetraazacyclododecane-1,4,7-triyl)triacetic acid], with below 0.01 µM.
For the compound `COc1nc(OCCOCCOCCOCCOCCOCCOCCOCCOCCNC(=O)CN2CCN(CC(=O)O)CCN(CC(=O)O)CCN(CC(=O)O)CC2)nc(OC)c1NC(=O)c1ccc(Oc2cc3c(cc2C)CCC3(C)C)o1` [Compound 4, 2,2′,2″-(10-(29-((4,6-dimethoxy-5-(5-((3,3,6-trimethyl-2,3-dihydro-1H-inden-5-yl)oxy)furan-2-carboxamido)pyrimidin-2-yl)oxy)-2-oxo-6,9,12,15,18,21,24,27-octaoxa-3-azanonacosyl)-1,4,7,10-tetraazacyclododecane-1,4,7-triyl)triacetic acid], the inhibitory constant (Ki) is below 0.01 µM.
For the compound `COc1nc(SCCC(=O)NCCN(C)CCNC(=O)[C@H](N)CCCNC(=O)CN2CCN(CC(=O)O)CCN(CC(=O)O)CCN(CC(=O)O)CC2)nc(OC)c1NC(=O)c1ccc(Oc2cc3c(cc2C)CCC3(C)C)o1` [Compound 19, (R)-2,2′,2″-(10-(7-amino-18-((4,6-dimethoxy-5-(5-((3,3,6-trimethyl-2,3-dihydro-1H-inden-5-yl)oxy)furan-2-carboxamido)pyrimidin-2-yl)thio)-12-methyl-2,8,16-trioxo-3,9,12,15-tetraazaoctadecyl)-1,4,7,10-tetraazacyclododecane-1,4,7-triyl)triacetic acid], the Ki is below 0.01 µM.
On to `COc1nc(SCCC(=O)NCCN(C)CCNC(=O)CN2CCN(CC(=O)O)CCN(CC(=O)O)CCN(CC(=O)O)CC2)nc(OC)c1NC(=O)c1ccc(Oc2cc3c(cc2C)CCC3(C)C)o1` [Compound 17, 2,2′,2″-(10-(2-((2-((2-(3-((4,6-dimethoxy-5-(5-((3,3,6-trimethyl-2,3-dihydro-1H-inden-5-yl)oxy)furan-2-carboxamido)pyrimidin-2-yl)thio)propanamido)ethyl)(methyl)amino)ethyl)amino)-2-oxoethyl)-1,4,7,10-tetraazacyclododecane-1,4,7-triyl)triacetic acid], for which the Ki is below 0.01 µM.
